# Data: ChEMBL document CHEMBL1156181, “B-Raf kinase inhibitors: hit enrichment through scaffold hopping” (Bioorg Med Chem Lett, 2010)
# Experiments:
# Caco-2 = assay: Growth inhibition of human Caco-2 cells; assay type: functional, cell-based
# HT-29 = assay: Growth inhibition of human HT-29 cells; assay type: functional, cell-based
# [1] = molecular target: T1, Tyrosine-protein kinase ITK/TSK (Homo sapiens, UniProt Q08881); assay: Inhibition of ITK
# T1 sequence (Q08881 whole entry): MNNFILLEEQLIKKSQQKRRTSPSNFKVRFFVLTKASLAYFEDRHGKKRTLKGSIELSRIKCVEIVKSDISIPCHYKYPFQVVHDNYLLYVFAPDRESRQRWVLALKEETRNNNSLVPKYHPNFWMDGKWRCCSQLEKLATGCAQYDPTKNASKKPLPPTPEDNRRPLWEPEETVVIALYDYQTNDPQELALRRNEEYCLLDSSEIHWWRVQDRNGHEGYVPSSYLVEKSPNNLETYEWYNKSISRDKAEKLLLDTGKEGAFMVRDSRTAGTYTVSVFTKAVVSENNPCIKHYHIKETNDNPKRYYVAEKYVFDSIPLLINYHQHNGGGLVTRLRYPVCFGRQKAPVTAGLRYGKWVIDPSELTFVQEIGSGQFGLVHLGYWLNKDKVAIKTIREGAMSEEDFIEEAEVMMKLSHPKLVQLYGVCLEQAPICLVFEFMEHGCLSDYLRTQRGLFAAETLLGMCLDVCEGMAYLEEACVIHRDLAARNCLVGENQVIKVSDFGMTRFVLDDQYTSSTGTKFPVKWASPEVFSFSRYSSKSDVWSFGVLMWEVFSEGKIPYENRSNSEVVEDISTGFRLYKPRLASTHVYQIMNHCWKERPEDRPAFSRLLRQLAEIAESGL
# [2] = molecular target: Cyclin-dependent kinase 4 (Homo sapiens, UniProt P11802); assay: Inhibition of CDK4
# Chain of Cyclin-dependent kinase 4 (P11802 whole entry): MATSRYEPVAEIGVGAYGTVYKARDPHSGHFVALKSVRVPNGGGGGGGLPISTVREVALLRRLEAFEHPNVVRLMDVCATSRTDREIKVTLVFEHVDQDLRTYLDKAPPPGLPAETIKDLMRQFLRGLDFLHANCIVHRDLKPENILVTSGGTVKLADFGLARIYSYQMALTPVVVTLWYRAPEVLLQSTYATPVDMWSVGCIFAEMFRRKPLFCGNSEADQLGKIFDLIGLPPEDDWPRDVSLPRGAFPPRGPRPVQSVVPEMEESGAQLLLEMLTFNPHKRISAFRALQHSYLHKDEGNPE
# [3] = molecular target: Serine/threonine-protein kinase mTOR (Homo sapiens, UniProt P42345); assay: Inhibition of mTOR
# LoVo = assay: Growth inhibition of human LoVo cells; assay type: functional, cell-based
# [4] = molecular target: RAC-alpha serine/threonine-protein kinase (Homo sapiens, UniProt P31749); assay: Inhibition of AKT
# Chain of RAC-alpha serine/threonine-protein kinase (P31749 whole entry): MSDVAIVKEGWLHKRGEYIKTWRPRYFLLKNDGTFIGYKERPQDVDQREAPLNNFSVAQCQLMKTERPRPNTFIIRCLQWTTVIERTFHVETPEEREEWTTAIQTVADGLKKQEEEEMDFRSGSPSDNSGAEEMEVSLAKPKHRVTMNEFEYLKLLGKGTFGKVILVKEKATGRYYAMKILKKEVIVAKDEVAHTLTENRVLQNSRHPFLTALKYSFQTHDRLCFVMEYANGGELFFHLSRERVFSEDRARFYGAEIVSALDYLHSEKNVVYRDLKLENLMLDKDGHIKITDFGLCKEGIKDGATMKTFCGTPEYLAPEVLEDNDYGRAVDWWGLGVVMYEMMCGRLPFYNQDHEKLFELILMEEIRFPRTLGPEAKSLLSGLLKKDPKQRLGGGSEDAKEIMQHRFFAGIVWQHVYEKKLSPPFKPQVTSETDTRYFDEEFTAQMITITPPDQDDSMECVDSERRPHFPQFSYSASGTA
# A-375 = assay: Growth inhibition of human A375 cells; assay type: functional, cell-based
# [5] = Growth inhibition of human WM266.4 cells; assay type: functional, cell-based; conditions: WM 266-4
# [6] = molecular target: Proto-oncogene tyrosine-protein kinase Src (Homo sapiens, UniProt P12931); assay: Inhibition of SRC
# Chain of Proto-oncogene tyrosine-protein kinase Src (P12931 2-536 limits assumed): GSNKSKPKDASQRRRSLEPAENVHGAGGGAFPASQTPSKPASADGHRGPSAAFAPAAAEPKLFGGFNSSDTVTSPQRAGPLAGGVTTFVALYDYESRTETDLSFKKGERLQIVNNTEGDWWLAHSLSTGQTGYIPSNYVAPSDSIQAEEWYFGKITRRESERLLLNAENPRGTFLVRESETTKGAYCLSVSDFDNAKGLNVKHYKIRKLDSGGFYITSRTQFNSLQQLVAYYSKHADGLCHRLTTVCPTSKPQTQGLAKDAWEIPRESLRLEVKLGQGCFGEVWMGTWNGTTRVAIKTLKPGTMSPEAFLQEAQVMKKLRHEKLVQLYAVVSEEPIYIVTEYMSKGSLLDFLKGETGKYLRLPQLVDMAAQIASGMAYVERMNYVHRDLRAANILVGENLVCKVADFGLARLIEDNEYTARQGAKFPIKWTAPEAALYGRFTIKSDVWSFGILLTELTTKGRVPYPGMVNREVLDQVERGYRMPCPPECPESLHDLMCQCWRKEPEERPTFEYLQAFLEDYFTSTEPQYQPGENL
# [7] = molecular target: Phosphatidylinositol 4,5-bisphosphate 3-kinase catalytic subunit alpha isoform (Homo sapiens, UniProt P42336); assay: Inhibition of PI3Kalpha
# Chain of Phosphatidylinositol 4,5-bisphosphate 3-kinase catalytic subunit alpha isoform (P42336 whole entry, canonical isoform): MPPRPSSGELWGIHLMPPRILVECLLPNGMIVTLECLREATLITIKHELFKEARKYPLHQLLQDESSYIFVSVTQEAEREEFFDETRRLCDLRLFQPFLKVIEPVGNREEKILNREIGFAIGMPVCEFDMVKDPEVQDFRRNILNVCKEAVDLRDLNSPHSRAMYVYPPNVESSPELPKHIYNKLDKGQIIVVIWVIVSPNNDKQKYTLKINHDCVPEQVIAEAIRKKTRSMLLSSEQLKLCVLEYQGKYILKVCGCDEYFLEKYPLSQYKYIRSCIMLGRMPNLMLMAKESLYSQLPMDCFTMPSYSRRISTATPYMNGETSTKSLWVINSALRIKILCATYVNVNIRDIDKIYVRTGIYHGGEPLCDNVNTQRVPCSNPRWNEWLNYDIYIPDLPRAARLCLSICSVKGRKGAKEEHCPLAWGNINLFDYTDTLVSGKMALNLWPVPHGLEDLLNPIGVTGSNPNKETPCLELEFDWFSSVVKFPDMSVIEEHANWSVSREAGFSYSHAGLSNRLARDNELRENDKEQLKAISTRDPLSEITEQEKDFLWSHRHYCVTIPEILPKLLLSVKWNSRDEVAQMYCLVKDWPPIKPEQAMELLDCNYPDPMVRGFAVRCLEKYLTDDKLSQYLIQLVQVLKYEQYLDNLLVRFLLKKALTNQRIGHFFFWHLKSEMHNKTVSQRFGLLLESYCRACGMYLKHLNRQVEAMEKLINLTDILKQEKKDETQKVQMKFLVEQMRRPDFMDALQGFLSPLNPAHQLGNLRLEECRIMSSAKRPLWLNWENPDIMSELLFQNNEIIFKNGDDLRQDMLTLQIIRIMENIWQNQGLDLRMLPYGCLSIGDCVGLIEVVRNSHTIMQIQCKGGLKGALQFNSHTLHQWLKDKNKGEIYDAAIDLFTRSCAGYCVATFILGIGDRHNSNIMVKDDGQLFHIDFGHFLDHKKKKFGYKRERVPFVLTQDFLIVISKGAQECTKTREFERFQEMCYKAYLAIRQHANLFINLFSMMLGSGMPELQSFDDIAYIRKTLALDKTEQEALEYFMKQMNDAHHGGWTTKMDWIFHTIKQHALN
# [8] = molecular target: Tyrosine-protein kinase BTK (Homo sapiens, UniProt Q06187); assay: Inhibition of BTK
# Chain of Tyrosine-protein kinase BTK (Q06187 whole entry): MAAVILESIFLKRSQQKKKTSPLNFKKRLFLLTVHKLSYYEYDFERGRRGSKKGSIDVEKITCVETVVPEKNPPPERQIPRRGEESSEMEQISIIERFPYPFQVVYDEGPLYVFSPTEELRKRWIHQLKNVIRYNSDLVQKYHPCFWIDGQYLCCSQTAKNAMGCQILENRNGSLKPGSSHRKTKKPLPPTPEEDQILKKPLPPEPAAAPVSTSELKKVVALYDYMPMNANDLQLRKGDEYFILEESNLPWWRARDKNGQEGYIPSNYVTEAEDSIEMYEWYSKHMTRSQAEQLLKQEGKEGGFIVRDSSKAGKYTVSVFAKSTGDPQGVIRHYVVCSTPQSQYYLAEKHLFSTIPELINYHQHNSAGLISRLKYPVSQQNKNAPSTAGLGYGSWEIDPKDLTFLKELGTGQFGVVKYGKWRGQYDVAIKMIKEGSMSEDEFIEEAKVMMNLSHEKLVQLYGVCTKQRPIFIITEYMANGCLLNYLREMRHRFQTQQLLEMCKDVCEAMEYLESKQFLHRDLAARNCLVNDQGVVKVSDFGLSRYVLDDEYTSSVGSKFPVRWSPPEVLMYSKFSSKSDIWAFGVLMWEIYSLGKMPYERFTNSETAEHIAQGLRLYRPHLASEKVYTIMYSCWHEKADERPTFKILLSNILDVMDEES
# [9] = molecular target: Tyrosine-protein kinase Lyn (Homo sapiens, UniProt P07948); assay: Inhibition of LYN
# Chain of Tyrosine-protein kinase Lyn (P07948 whole entry): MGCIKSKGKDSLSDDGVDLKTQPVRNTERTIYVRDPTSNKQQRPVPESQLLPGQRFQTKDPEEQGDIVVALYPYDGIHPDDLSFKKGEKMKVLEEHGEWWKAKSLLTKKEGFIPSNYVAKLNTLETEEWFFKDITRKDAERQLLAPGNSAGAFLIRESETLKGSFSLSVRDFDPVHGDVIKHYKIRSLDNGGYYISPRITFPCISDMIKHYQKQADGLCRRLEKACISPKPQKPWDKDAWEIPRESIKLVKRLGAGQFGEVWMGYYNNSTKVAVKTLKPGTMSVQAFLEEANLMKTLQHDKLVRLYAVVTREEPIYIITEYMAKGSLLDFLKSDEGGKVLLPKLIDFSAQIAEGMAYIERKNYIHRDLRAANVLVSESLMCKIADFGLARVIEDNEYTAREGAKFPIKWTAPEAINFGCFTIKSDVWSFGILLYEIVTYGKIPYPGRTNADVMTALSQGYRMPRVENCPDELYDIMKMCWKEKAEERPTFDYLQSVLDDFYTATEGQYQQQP
# [10] = molecular target: Protein kinase C theta type (Homo sapiens, UniProt Q04759); assay: Inhibition of PKCtheta
# Chain of Protein kinase C theta type (Q04759 whole entry): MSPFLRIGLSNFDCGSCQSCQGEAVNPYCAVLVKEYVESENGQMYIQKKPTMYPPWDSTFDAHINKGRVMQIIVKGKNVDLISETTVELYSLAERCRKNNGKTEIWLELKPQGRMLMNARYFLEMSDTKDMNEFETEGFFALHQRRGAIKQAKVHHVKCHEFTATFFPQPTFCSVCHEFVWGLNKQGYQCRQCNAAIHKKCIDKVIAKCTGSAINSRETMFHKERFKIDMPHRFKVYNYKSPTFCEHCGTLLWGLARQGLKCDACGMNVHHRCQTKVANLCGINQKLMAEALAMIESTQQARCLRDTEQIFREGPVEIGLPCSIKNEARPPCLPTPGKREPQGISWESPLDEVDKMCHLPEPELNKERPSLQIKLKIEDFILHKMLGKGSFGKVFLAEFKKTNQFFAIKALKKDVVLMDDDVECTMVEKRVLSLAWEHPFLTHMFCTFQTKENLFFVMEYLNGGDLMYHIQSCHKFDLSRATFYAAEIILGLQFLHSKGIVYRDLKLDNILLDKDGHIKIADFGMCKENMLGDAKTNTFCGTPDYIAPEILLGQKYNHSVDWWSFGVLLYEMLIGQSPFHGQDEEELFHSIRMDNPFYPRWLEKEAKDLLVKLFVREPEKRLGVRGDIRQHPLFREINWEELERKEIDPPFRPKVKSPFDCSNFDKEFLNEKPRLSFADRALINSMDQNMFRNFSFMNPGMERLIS
# [11] = molecular target: T2, Inhibitor of nuclear factor kappa-B kinase subunit beta (Homo sapiens, UniProt O14920); assay: Inhibition of IKK2
# T2 sequence (O14920 whole entry): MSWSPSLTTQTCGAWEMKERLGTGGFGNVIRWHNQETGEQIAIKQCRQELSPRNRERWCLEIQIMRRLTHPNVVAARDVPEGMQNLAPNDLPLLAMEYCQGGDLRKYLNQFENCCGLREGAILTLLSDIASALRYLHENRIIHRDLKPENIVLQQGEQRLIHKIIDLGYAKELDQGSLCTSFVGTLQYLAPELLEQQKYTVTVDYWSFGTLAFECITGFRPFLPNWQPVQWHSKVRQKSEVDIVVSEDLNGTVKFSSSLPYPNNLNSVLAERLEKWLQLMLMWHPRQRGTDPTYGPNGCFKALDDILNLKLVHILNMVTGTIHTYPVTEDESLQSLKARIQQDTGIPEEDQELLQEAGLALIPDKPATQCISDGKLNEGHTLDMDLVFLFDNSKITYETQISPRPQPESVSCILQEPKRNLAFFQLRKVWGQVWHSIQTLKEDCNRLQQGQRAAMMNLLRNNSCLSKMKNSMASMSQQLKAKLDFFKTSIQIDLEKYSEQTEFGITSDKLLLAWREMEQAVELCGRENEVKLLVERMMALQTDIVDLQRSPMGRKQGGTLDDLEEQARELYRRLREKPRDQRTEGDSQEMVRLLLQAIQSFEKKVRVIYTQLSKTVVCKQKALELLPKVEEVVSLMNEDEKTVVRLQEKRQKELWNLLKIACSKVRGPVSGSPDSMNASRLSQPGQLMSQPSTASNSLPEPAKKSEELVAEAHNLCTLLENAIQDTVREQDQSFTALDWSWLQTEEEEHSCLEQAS
# [12] = molecular target: Serine/threonine-protein kinase B-raf (Homo sapiens, UniProt P15056); assay: Inhibition of B-Raf
# Chain of Serine/threonine-protein kinase B-raf (P15056 whole entry): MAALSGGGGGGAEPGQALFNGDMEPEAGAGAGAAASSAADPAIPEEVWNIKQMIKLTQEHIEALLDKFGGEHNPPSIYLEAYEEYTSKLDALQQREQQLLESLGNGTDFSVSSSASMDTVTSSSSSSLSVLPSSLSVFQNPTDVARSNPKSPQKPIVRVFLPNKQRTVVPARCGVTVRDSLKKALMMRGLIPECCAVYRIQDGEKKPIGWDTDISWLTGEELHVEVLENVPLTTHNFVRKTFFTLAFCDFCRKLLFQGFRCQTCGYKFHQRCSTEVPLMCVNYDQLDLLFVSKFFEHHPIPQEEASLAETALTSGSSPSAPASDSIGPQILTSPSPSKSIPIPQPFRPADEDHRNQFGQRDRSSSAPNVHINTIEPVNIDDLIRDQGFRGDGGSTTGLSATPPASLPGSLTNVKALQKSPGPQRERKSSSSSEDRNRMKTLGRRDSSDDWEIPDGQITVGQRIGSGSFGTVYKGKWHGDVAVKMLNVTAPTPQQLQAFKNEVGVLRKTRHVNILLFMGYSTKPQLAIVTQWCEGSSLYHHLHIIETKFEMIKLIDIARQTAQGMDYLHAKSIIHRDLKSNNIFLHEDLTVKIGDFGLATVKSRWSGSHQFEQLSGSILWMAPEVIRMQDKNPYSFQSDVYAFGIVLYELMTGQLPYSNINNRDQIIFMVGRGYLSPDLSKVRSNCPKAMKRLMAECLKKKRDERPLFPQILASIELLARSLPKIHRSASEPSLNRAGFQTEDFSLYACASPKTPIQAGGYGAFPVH
smiles,measurement,setting,value
O=C(Nc1cccc(-c2ncnc3sc(-c4ccncc4)cc23)c1)c1cccc(C(F)(F)F)c1,IC50,Caco-2,1.1 µM
same,IC50,HT-29,0.15 µM
same,IC50,[1],> 10 µM
same,IC50,[2],> 10 µM
same,IC50,[3],> 10 µM
same,IC50,LoVo,0.3 µM
same,IC50,[4],> 10 µM
same,IC50,A-375,0.23 µM
same,IC50,[5],3.1 µM
same,IC50,[6],> 10 µM
same,IC50,[7],> 10 µM
same,IC50,[8],> 10 µM
same,IC50,[9],> 10 µM
same,IC50,[10],> 10 µM
same,IC50,[11],> 10 µM
N#Cc1cnc2cc(-c3cccnc3)sc2c1-c1cccc(NC(=O)c2cccc(C(F)(F)F)c2)c1,IC50,[12],> 10 µM
O=C(Nc1cccc(-c2ncnc3cc(-c4cccnc4)sc23)c1)c1cccc(C(F)(F)F)c1,IC50,[12],> 10 µM
O=C(Nc1cccc(-c2ccnc3cc(-c4cccnc4)nn23)c1)c1cccc(C(F)(F)F)c1,IC50,[12],> 10 µM
N#Cc1cnc2sc(-c3ccncc3)cc2c1-c1cccc(NC(=O)c2cccc(C(F)(F)F)c2)c1,IC50,[12],> 10 µM
N#Cc1cnc2sc(-c3cccnc3)cc2c1-c1cccc(NC(=O)c2cccc(C(F)(F)F)c2)c1,IC50,[12],> 10 µM
